Assay results: patent publication US20200316087A1, “NOVEL COMBINATION THERAPY FOR ANXIETY DISORDERS, EPILEPSY, AND PAIN” (priority 2017, published 2020)

How the values were obtained:
[1] = system: immobility in forced-swim test; test: Forced-swim assay; assay type: in vivo, mice
Description: Male NIH Swiss mice (Envigo, Indianapolis, Ind.) were studied. Mice were placed in clear plastic cylinders (diameter: 10 cm; height: 25 cm) filled with 6 cm of water (22-25° C.) for six min. […] The duration of immobility during the last four min of the six min test period was scored. A mouse was recorded as immobile when floating motionless or making only those movements necessary to keep its head above water.

[2] = system: motor performance on an inverted screen; test: Rat inverted screen test (motor impairment); conditions: up to 30 mg/kg, rats, inverted screen
Source text: The motor effects of Diazepam and KRM-II-81 were studied on the inverted screen. The inverted screen test is used to measure whether or not a test compound induces muscle relaxation. When a test subject is placed on a wire screen which is then inverted, the reaction is to climb to the opposite side so they are no longer hanging upside down.
Male, Sprague Dawley rats (Harlan Sprague Dawley, Indianapolis, Ind.) were used and weighed 90-110 g when evaluated in experiments. […] Rats were placed onto the top of a wire screen, which was then inverted so that the rats were hanging upside down.
Male Sprague-Dawley rats (n=5) were dosed i.p. (vehicle=1% carboxymethyl cellulose) with diazepam (3, 10, or 30 mg/kg), KRM-II-81 (10, 30, or 60 mg/kg) or HZ-166 (30 mg/kg) 30 minutes prior to testing. Rats were placed onto the top of a wire screen, which was then inverted so that the rats were hanging upside down. […] Results were analyzed using ANOVA (Dunnett's test: *P<0.05).
(§1) For the in vivo assays, minimal effective doses (MED) were calculated in mg/kg. MED was defined as the lowest dose administered that produced statistically significant protection compared to vehicle control in the anticonvulsant assays. The MED, or minimal toxic dose (MTD) for motor impairment, was the minimal dose required to produce statistically-significant impairment in motor performance. Doses tested are shown in the figures and tables and are generally dosed in ½ log increments. The protective index (PT) was calculated at the MTD/MED.

[3] = system: electroshock-induced seizures; test: Mouse electroshock-induced seizure model; assay type: in vivo; conditions: mice
Description: This assay detects effects of compounds that produce generalized seizures and those that dampen seizure spread. Male, CD1 mice (Taconic Farms) were studied at weights of 21-32 g. Mice=10/dose) were used with Wahlquist Model H stimulator with 0.2 sec stimulation with corneal electrodes. […] Mice were euthanized immediately following the test. Tonic extension was used as the primary endpoint.
as §1

[4] = system: human (α2), or rat (α1, α3, α5, γ2L, β3) GABAA receptor subunits; test: Whole-cell patch-clamp GABA current responses in transfected HEK-293T cells; assay type: cell-based; conditions: GABA EC3-5, drug concentration 100 nM
Description: Human […] (HEK-293T) were transiently transfected with full-length cDNAs encoding human (α2), or rat (α1, α3, α5, γ2L, β3) GABAA receptor subunits using calcium phosphate precipitation. Positively transfected cells were isolated by utilizing co-transfection of a plasmid encoding a surface antibody (pHook™-1, Invitrogen). 20-52 hours following transfection, cells were mixed with magnetic beads coated with antigen specific for the pHook antibody, isolated with a magnetic stand, and then plated onto coverslips and used for patch-clamp recordings 18-28 hours later.
Current responses to GABA were recorded in the whole-cell configuration, with cells voltage-clamped at −50 mV. The bath solution contained (in mM): 142 NaCl, 8.1 KCl, 6 MgCl2, 1 CaCl2), and 10 HEPES (4-(2-hydroxyethyl)-1-piperazineethanesulfonic acid) with pH=7.4 and osmolarity adjusted to 295-305 mOsm. The electrode (internal) solution consisted of (in mM); 153 KCl, 1 MgCl2, 5 K-EGTA (ethylene glycol-bis (β-aminoethyl ether N,N,N′N′-tetraacetate)), and 10 HEPES with pH=7.4 and osmolarity adjusted to 295-305 mOsm. […] Currents were recorded with an Axon 200B (Foster City, Calif.) patch clamp amplifier. […] Data were analyzed by two-way ANOVA followed by post-hoc Tukey's multiple comparison test. […]

PTZ-induced clonus = test: Pentylenetetrazole (PTZ, 35 mg/kg s.c.)-induced clonic convulsions; assay type: in vivo; conditions: for PTZ Clonus to Criteria 1: MED producing maximal protection (0% seizures); for PTZ Clonus Potency (MED): lowest dose with statistically significant protection; for PTZ Clonus Potency (MED) / protection against PTZ-induced clonus: PTZ 35 mg/kg s.c.
Description: After the inverted screen test, the rats were dosed with pentylenetetrazole (PTZ)(35 mg/kg, s.c.) in a volume of 1 ml/kg and placed in an observation cage (40.6×20.3×15.2 cm) with a floor containing […] of wood chip bedding material. PTZ dose was determined to be ˜EC97 for producing clonic convulsions.

[5] = system: seizures in amygdala kindled rats; test: Basolateral amygdala kindling; assay type: in vivo
Description: Seizure kindling models evaluate effects of drugs on the sensitization of the nervous system to seizure induction. In this test, drugs were evaluated for their ability to impact seizure parameters in rats that were fully kindled by daily electrical stimulation of their amygdala. Valproic acid was used as a positive control. Experiments were conducted using the general procedures of Zwart et al. (J. Pharmacol. Exp. Ther., 2014, 351:124-133). A bipolar electrode for electrical stimulation and EEG recording was stereotaxically implanted into one hemisphere of the basolateral amygdala (AP −2.2, ML −4.8, DV −8.5 mm, relative to bregma) of male Wistar rats. After post-operative recovery, electrical kindling begins, where a subthreshold constant current (400 μA, 1 ms, monophasic square-wave pulses, 60 Hz for 1 sec) is given once a day Monday-Friday for about 4-6 weeks until a rat is fully kindled. A fully kindled rat has experienced 10 consecutive stage 5 seizures or 10 of its last 12 were stage 5 according to the Racine Scale.
Twelve fully kindled rats were assigned to this study, and eight rats were selected and randomized to initial compound treatment groups from baseline after discharge threshold (ADT), seizure severity score, and after discharge duration (ADD). […] On test day, rats were dosed 30 min prior to beginning stimulation. After the pre-treatment, rats were stimulated using an ascending staircase sequence beginning at 10 μA and increasing in log unit steps of 10, 16, 25, 40, 65, 100, 160, 250, and 400 μA. Animals were stimulated until they were assigned a Seizure Severity Score for a visually observably seizure or they reached the 400 μA threshold limit. ADD was determined following testing. ADT was the current that induced a seizure; measurements were scale-adjusted to capture the stimulation scale change required to observe a seizure from the previous baseline to the ADT scored on test day. […] The average scale adjusted ADT was approximately 0.63 μA in vehicle treated rats.
Racine score of behavioral response to stimulation: 0=no behavioral response; 1=immobility, staring and/or facial clonus; 2=head nodding, jaw clonus, and/or tongue protrusion; 3=unilateral forelimb clonus; 4=bilateral forelimb clonus and/or rearing; 5=bilateral forelimb clonus with rearing and loss of balance.
After-Discharge Duration (ADD) is the duration of the first after-discharge.
ADT, ADD, and severity scores were analyzed by ANOVA. Seizure severity data was also analyzed by the nonparametric Skillings-Mack test, a generalization of the Friedman test for one-way repeated measures designs. Posthoc tests when reported were either by Dunnett's method (seizure severity) or using Wilcoxon sign rank tests (ADT and ADD). Valproic acid, used as a positive control was not used in ANOVA calculations.

PTZ seizure threshold = test: Pentylenetetrazole (PTZ, i.v.)-induced seizure threshold; assay type: in vivo, rats
Description: Male […] Sprague-Dawley rats (Indianapolis, Ind.) were randomly assigned to treatment groups and dosed with vehicle (vehicle=1% carboxymethyl cellulose) with diazepam (0.1, 0.3, or 1 mg/kg) or test compound (3, 10, 30, or 60 mg/kg) 30 minutes prior to testing. Rats were placed in a restrainer and a winged infusion needle was inserted into the lateral tail vein. Intravenous infusion with 10 mg/ml PTZ at a rate of 0.5 ml/min was initiated until a clonic convulsion occurred, and the time to clonic convulsion was recorded in sec or a maximum of 4 min was recorded. Following infusion, rats are euthanized. The dose of PTZ required to elicit a clonic convulsion was calculated using the infusion rate, concentration of PTZ, time to clonic convulsion, and animal weight.

[6] = system: motor performance on inverted screen
Description: Without prior pretraining, mice were placed on an 11 cm×14 cm square of round hole, perforated stainless steel mesh (18 holes/square inch, 3/16 inch diameter, ¼ inch staggered centers, 50% open area) mounted on a metal rod, 35 cm above the table top. The screen was slowly inverted such that the mouse was on the underside of the screen. Mice were then scored for 60 sec as follows: 0=climbed to top of screen, 1=hung onto bottom of screen, 2=fell off. Data were analyzed by ANOVA followed by post-hoc Dunnett's test.
The test compounds were suspended in 1% hydroxyethylcellulose/0.05% Tween 80/0.05% Dow antifoam. […] Compounds were administered in a volume of 10 ml/kg and were given 30 min prior to testing via the i.p. route of administration; diazepam was dosed orally, 30 min prior to testing.

With `C#Cc1ccc2c(c1)C(c1ccccn1)=NCc1c(-c3nc(CC)no3)ncn1-2` [MP-III-080, 3-ethyl-5-(8-ethynyl-6-(pyridin-2-yl)-4H-benzo[f]imidazo[1,5-a][1,4]diazepin-3-yl)-1,2,4-oxadiazole] the “immobility in forced-swim assay” value ([1]; male NIH Swiss mice, i.p., 30 min prior) was “significantly decreased immobility time”, the “effect on motor performance” value [2] was “without significant effect on motor performance” and the “Electroshock to Criteria” value ([3]; MED producing maximal protection (0% seizures)) was 5.6 mg/kg. The “selectivity for α2 and α3 over α1” value [4] was “selective for α2 and α 3 over α1”, the “PTZ Clonus to Criteria 1” value (PTZ-induced clonus; rats) was 10 mg/kg and the “PTZ Clonus Potency (MED)” value (PTZ-induced clonus; rats) was 10 mg/kg. The “protection against PTZ-induced clonus” value (PTZ-induced clonus; rats) was “dose-dependently suppressed”.

In the case of `CN1C(=O)CN=C(c2ccccc2)c2cc(Cl)ccc21` [Diazepam, diazepam, reference compound], the “antidepressant-like effect in forced-swim assay” value ([1]; diazepam 22 mg/kg p.o. alone, mice) is reported as “did not produce an antidepressant-like effect”, the “potency relative to KRM-II-81 to induce full seizure protection” value ([3]; electroshock) is reported as 5 × and the “Electroshock (minimal effective dose, MED)” value ([3]; lowest dose with statistically significant protection vs vehicle) is reported as 3 mg/kg. The “protection against electroshock-induced seizures” value [3] was “fully prevented”, the “PTZ Clonus to Criteria 1” value (PTZ-induced clonus; rats) was 10 mg/kg and the “potency relative to KRM-II-81 to induce full seizure protection” value (PTZ-induced clonus; PTZ-induced clonus, rats) was 10 ×. For the same molecule, the “convulsions (rats convulsing/tested) after PTZ” value (PTZ-induced clonus; diazepam 30 mg/kg p.o. + PTZ) was 0/5, the “PTZ Clonus Potency (MED)” value (PTZ-induced clonus; rats) was 10 mg/kg and the “protection against PTZ-induced clonus” value (PTZ-induced clonus; rats) was “fully prevented”. The “After-Discharge Duration to Criteria” value ([5]; MED for producing after-discharge duration ≤30 sec) was over 10 mg/kg, the “After-Discharge Threshold to Criteria” value ([5]; MED for producing after-discharge threshold ≥3) was over 10 mg/kg and the “Seizure Severity to Criteria” value ([5]; MED for producing seizure severity score ≤2) was 10 mg/kg. The “After-Discharge Duration Potency (MED)” value ([5]; amygdala kindled rats) was over 10 mg/kg, the “After-Discharge Threshold Potency (MED)” value ([5]; amygdala kindled rats) was 10 mg/kg and the “Seizure Severity Poteny (MED)” value ([5]; amygdala kindled rats) was 10 mg/kg. For the same molecule, the “effect on adjusted after-discharge threshold (ADT)” value ([5]; amygdala kindled rats) was “significantly increased”, the “effect on after-discharge duration (ADD)” value ([5]; amygdala kindled rats) was “trend for a significant effect” and the “effect on seizure severity score / kindling measures” value ([5]; amygdala kindled rats) was “decreased significantly”. The “Seizure free scores (seizure severity=0)” value ([5]; amygdala kindled rats, groups of 8) was 2/8, the “PTZ Threshold to Criteria” value (PTZ seizure threshold; MED for producing ≥2× PTZ seizure threshold at baseline) was over 1 mg/kg and the “potency relative to KRM-II-81 and KRM-II-82” value (PTZ seizure threshold; PTZ seizure threshold, rats) was “about 10 times”. The “PTZ Threshold Poteny (MED)” value (PTZ seizure threshold; lowest dose with statistically significant effect, rats, PTZ i.v.) was 1 mg/kg, the “effect on dose of PTZ required to induce convulsions” value (PTZ seizure threshold; rats, PTZ i.v. infusion, pretreatment 30 min) was “increased the dose of PTZ required to induce convulsions” and the “motor impairment on inverted screen” value ([6]; diazepam 22 mg/kg p.o., mice) was “still significant but not maximal”. For the same molecule, the “motor impairment score on inverted screen test” value ([6]; diazepam 30 mg/kg p.o., prior data, out of 2.0) was 1.8.
